Consider 1 molecule from PMC13598332, “Selective activation of tetrodotoxin-sensitive sodium channels by AaH-II drives arrhythmogenic late Na^+ current in the heart” (Europace, 2026).

Like-named read-outs stand apart in the source and are kept apart here.

One experiment has as its target hNav1.3 (Homo sapiens, UniProt Q9NY46). In kind it is cell-based.
The next experiment relates to isolated rat heart. The experiment in a line: Ex vivo cardiac electrophysiological recordings (Langendorff, MEA). The conditions noted are these: for increase in repolarization area of ventricular local field potential: mean ± SEM. As for the experimental part: Eleven-week-old Wistar-Han rats were first heparinized (heparin sodium, 0.5 U/g i.p.) and then euthanized by i.p. injection of 140 mg/kg pentobarbital (Euthasol®). Hearts were quickly excised and immersed in a cold modified Krebs-Henseleit solution (in mM): 116 NaCl, 5 KCl, 1.1 MgSO4, 7 H2O, 0.35 NaH2PO4, 27 NaHCO3, 10 glucose, and pH 7.4. The aorta was cannulated, and the hearts were perfused on a Langendorff system with warm (36.5–37.5°C) and oxygenated (95% O2/5% CO2) Krebs-Henseleit solution supplemented with 1.8 mM CaCl2, 1 mM lactate, and 0.2 mM pyruvate (control solution) at a constant flow rate of 12 mL/min. Once connected to the Langendorff perfusion system, hearts were perfused with control solution for 10 min to stabilize their activities. Electrical activity of the upper part of the right ventricle was assessed using a 64-electrode array (0.2-mm electrode diameter; 0.36-mm interelectrode distance) connected to an EMS64-USB-1002 amplifier. Single-lead ECG was acquired to monitor global cardiac electrical activity. Data were sampled at 10 kHz per channel and acquired by EMapRecord5 (Mappinglab, Oxford, UK). Data were obtained at baseline (2 min before compound perfusion) and during AaH-II* perfusion for 10 min at various concentrations. Data were analysed using EMapScope5 (Mappinglab, Oxford, UK). Activation times were determined as the point of maximal negative slope. All activation times were related to the timing of the first detected waveform and then used to draw activation maps. An average of three complexes was used for activation time and conduction velocity analyses, while interbeat interval was measured as the average of 10 consecutive intervals. The index of inhomogeneity was calculated as previously described.[23] Arrhythmias were quantified over a period of 2 min in control and after peptide perfusion.

Experiment [1] deals with human iPS-derived cardiomyocytes. Briefly: Automated patch-clamp of Na+ current in human iPS-derived cardiomyocytes. In kind it is cell-based. How it is done: The control hiPSC cell line (ITXi002-A; IRX5-Wt[16]; RRID:CVCL_B5QD) was generated from primary dermal fibroblasts and previously characterized.[17–19] hiPSCs were maintained at 37°C, 5% CO2, 21% O2 in StemMacs PSC-Brew XF human medium (Miltenyi Biotec, #130-127-865) on culture plates coated with 0.05 mg/mL Matrigel hESC-Qualified Matrix (Corning, #354277) in DMEM F12 (Gibco, #11320033). At 75% confluency, the cells were passaged using the Gentle Cell Dissociation Reagent (StemCell Technologies, #07174).
We generated right ventricular-like cardioids on 96-well low-attachment plates using the Schmidt et al. (2023) protocol.[20] At D15.5, cardioids were pooled, dissociated, and replated as a monolayer in MW12 plates (Falcon, #353047) coated with Matrigel (Corning, #354277) for automated patch-clamp, and as single cells in 35-mm Petri dishes (NUNC #055055) coated with Matrigel for manual patch-clamp. Immediately before patch-clamp recording, cardiomyocytes were single-cell dissociated using Accutase (Sigma, #A6964).
For human iPSC-derived cardiomyocytes recordings, cells were resuspended at 300 000 cells/mL in a solution composed of 50% culture media and 50% extracellular buffer containing (in mM) 140 NaCl, 4 KCl, 2 CaCl2, 1 MgCl2, 5 glucose, and 10 HEPES (pH 7.4, osmolarity 298 mOsm) supplemented with 5 µM nifedipine. Single-hole, low-resistance chips (3–5 MΩ) were used. The intracellular solution contained (in mM) 10 KCl, 110 KF, 10 NaCl, 1 MgCl2, 1 CaCl2, 10 Ethylene Glycol Tetra-acetic Acid (EGTA), and 10 HEPES (pH 7.2, osmolarity 280 mOsm). Currents were recorded and analysed as previously described for stable cell lines.
A general note: Patch clamp records ionic current or voltage across a cell membrane.

In another experiment the target is hNav1.4 (Homo sapiens, UniProt P35499). It is filed as cell-based.
Experiment [2] relates to adult rat ventricular myocytes. It is filed as cell-based. The following applies: HP −120 mV, 1-s pulse to −20 mV.
[3] abbreviates: representative traces, test 0 mV.

Chain of hNav1.3 (Q9NY46 other isoform, or with tags, fused parts or gaps): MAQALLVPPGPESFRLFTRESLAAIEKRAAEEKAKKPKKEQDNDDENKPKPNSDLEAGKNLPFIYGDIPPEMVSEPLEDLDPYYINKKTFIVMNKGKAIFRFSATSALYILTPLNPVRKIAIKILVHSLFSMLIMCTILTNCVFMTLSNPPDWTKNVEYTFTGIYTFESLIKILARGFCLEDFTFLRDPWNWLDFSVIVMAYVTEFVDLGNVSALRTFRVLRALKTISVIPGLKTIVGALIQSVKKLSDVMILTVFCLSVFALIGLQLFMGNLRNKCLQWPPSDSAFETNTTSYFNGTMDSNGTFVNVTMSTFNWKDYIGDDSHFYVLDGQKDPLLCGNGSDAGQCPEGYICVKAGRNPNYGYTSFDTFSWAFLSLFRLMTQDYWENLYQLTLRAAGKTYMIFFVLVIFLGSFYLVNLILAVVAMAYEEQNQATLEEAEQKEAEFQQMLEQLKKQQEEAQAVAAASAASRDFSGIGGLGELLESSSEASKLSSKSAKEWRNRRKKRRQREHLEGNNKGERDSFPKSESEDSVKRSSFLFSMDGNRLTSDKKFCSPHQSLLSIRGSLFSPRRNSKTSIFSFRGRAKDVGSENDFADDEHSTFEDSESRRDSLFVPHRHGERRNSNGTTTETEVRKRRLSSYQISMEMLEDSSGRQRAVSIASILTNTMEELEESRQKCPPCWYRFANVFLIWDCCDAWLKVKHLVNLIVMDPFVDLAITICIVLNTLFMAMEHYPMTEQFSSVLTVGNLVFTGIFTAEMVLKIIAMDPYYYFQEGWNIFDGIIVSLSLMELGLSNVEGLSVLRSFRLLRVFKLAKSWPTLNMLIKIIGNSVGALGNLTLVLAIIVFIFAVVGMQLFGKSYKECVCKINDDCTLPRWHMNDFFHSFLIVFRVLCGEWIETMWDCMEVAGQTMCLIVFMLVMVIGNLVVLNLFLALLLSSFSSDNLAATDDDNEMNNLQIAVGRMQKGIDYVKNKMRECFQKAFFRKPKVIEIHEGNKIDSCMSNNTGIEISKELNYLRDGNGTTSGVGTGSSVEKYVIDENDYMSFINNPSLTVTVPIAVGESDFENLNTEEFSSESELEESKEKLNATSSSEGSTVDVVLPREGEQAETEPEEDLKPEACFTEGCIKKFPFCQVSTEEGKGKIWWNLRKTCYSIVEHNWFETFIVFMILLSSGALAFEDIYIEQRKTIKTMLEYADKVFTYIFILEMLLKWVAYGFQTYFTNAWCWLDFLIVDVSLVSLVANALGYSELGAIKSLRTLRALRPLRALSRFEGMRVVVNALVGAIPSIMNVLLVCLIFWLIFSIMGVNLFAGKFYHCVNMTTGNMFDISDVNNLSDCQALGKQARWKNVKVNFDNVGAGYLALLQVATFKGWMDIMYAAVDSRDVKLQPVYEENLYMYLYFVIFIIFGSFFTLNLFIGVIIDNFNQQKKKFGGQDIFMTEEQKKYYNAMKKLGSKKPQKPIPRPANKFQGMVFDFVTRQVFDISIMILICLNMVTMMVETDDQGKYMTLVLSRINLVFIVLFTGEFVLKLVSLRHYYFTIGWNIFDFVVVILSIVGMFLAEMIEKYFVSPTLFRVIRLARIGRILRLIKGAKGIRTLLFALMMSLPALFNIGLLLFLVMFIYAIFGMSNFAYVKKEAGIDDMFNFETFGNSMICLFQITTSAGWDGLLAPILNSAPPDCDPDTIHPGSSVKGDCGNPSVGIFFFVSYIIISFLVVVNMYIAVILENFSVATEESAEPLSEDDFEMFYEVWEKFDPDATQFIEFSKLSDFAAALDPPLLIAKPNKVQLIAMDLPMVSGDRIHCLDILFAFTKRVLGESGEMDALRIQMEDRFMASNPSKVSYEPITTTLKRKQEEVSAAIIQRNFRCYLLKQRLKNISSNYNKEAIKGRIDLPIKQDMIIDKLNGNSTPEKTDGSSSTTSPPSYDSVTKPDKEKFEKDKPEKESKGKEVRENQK
Chain of hNav1.4 (P35499 whole entry): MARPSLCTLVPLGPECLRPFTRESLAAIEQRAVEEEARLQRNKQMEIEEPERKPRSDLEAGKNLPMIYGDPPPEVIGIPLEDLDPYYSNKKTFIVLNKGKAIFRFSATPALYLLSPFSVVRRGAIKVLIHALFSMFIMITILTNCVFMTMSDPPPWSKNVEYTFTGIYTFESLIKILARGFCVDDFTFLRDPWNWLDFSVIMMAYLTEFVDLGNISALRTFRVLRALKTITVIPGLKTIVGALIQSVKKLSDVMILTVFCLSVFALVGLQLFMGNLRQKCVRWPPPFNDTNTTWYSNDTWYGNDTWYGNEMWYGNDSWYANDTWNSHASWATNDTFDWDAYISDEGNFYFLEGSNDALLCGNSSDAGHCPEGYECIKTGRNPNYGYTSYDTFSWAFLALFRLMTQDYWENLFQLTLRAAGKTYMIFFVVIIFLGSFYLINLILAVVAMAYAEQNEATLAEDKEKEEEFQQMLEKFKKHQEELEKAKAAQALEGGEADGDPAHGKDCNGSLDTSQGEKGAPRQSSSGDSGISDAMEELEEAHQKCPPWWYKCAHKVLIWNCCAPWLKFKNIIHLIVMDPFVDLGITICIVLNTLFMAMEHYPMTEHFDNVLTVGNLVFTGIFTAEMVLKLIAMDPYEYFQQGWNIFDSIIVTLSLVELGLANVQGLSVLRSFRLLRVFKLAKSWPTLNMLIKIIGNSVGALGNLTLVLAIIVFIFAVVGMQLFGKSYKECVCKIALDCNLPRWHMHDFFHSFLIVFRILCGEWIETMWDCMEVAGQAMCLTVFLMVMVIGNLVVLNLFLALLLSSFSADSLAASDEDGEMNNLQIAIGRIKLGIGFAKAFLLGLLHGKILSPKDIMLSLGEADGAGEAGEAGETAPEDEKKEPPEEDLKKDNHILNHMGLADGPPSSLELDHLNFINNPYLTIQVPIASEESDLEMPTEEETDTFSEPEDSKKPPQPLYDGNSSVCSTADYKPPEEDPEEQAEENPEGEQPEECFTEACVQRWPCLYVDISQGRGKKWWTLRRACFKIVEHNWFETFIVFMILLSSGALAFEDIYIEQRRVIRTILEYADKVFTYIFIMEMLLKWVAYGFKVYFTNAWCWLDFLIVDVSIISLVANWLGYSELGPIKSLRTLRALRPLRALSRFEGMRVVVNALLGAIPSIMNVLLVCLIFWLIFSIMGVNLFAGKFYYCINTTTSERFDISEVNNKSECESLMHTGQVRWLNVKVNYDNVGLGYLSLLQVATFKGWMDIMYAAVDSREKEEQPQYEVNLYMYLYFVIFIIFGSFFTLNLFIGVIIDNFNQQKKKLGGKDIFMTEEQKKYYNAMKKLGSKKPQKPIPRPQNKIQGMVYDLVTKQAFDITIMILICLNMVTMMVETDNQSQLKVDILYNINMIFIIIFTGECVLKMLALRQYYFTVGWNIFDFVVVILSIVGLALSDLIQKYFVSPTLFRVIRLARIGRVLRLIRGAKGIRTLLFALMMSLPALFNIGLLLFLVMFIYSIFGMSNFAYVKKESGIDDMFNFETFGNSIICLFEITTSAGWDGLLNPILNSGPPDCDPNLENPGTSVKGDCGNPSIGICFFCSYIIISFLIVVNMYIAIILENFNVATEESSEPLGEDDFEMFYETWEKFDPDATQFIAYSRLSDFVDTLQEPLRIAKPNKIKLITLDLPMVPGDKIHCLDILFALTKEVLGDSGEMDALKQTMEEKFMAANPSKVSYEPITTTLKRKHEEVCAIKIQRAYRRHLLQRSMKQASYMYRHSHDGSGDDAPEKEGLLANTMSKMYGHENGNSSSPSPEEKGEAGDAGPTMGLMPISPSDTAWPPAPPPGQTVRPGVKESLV

For the molecule `CC[C@H](C)[C@H](NC(=O)[C@H](Cc1ccc(O)cc1)NC(=O)CNC(=O)[C@H](CC(=O)O)NC(=O)[C@H](CCCCN)NC(=O)[C@@H](N)C(C)C)C(=O)N[C@H](C(=O)N[C@@H](CC(=O)O)C(=O)N[C@@H](CC(=O)O)C(=O)N[C@H](C(=O)N[C@@H](CC(N)=O)C(=O)N[C@H]1CSSC[C@@H](C(=O)N[C@@H](Cc2c[nH]cn2)C(N)=O)NC(=O)[C@H](CCCCN)NC(=O)CNC(=O)[C@@H]2CCCN2C(=O)CNC(=O)[C@H](CCCCN)NC(=O)[C@H]([C@@H](C)O)NC(=O)[C@H](CCCNC(=N)N)NC(=O)[C@H](C(C)C)NC(=O)[C@H](Cc2c[nH]cn2)NC(=O)[C@H](CC(=O)O)NC(=O)[C@@H]2CCCN2C(=O)[C@H](CC(C)C)NC(=O)[C@H](CCCCN)NC(=O)[C@H](Cc2ccc(O)cc2)NC(=O)[C@@H]2CSSC[C@@H]3NC(=O)[C@H](CCC(=O)O)NC(=O)[C@H](CCC(=O)O)NC(=O)[C@H](CC(N)=O)NC(=O)[C@@H]4CSSC[C@H](NC(=O)[C@H](C)NC(=O)[C@H](CC(N)=O)NC(=O)CNC(=O)[C@H](Cc5ccc(O)cc5)NC(=O)[C@@H]5CCCN5C(=O)[C@H](CO)NC(=O)[C@H](C)NC(=O)[C@H](Cc5c[nH]c6ccccc56)NC(=O)[C@H](CCC(N)=O)NC(=O)[C@H](CSSC[C@H](NC(=O)[C@H](Cc5ccccc5)NC(=O)[C@H](Cc5ccc(O)cc5)NC(=O)[C@H]([C@@H](C)O)NC1=O)C(=O)NCC(=O)N[C@@H](CCCNC(=N)N)C(=O)N[C@@H](CC(N)=O)C(=O)N[C@@H](C)C(=O)N[C@@H](Cc1ccc(O)cc1)C(=O)N4)NC(=O)[C@H](Cc1ccc(O)cc1)NC(=O)CNC(=O)[C@H](CO)NC(=O)[C@H](CCC(=O)O)NC(=O)CNC(=O)[C@H](CCCCN)NC(=O)[C@H](CC(C)C)NC(=O)[C@H](CCCCN)NC(=O)[C@H]([C@@H](C)O)NC3=O)C(=O)N[C@@H](Cc1ccc(O)cc1)C(=O)N2)C(C)C)C(C)C` [AaH-II*], the “INaL after 1 s depolarization” value on hNav1.3 (10 nM) is listed as “maintained INaL after 1 s pulse”; on hNav1.4 (10 nM), “lack of effects of AaH-II* on those two parameters”. Moreover, the “shift in voltage-dependence of activation” value is reported as “large AaH-II*-triggered hyperpolarizing shift in voltage-dependence of activation” at hNav1.3 (10 nM) and “lack of effects of AaH-II* on those two parameters” at hNav1.4 (10 nM). Besides, the “concentration at which INaL is triggered / becomes noticeable” value on hNav1.3 (setting [3]) came out at 0.1 nM; at hNav1.4 (setting [3]), 0.3 nM. Moreover, the “increase in repolarization area of ventricular local field potential” value in the experiment with isolated rat heart (0.1 nM) is 40.3 ± 8.0%; with isolated rat heart (1 nM), 140.6 ± 43.0%. In addition, the “arrhythmogenic hearts (hearts with arrhythmias / hearts)” value with isolated rat heart (1 nM AaH-II*) is on record as 5/7; in the experiment on isolated rat heart (10 nM AaH-II*) it was 6/7. In addition, the activation time entry in the experiment on isolated rat heart (10 nM) is “significantly increases activation time”. Besides, the “ventricular bradycardia (rhythm reduction)” value with isolated rat heart (10 nM, MEA on right ventricle, 10 min perfusion) was found to be 1.9 fold. The “cardiac conduction in the right ventricle” value in the experiment on isolated rat heart (0.1 and 1 nM) is listed as “do not affect conduction”. Further, in the experiment on isolated rat heart (0.1 and 1 nM, MEA on right ventricle, 10 min perfusion), the ventricular interbeat interval result is reported as “no effect on the interbeat interval”. The figures for the “INaL in human iPS-derived cardiomyocytes” value in experiment [1] (0.1 nM AaH-II*) and in experiment [1] (10 nM AaH-II*) were “triggered a characteristic INaL” and “a greater INaL could be recorded”, respectively. Also, the “maximal INaL stimulation (maximal AUC)” value on hNav1.4 (highest effective AaH-II* concentration) was “six”. Besides, the “AUC and INaL at 1 s depolarization” value in experiment [2] (0.1 nM, n = 6 cardiomyocytes) was “half of the cells responded with an increased AUC and INaL”; in experiment [2] (10 nM) it was “significant increase in AUC and INaL in all cells recorded”. In experiment [2] (0.1 nM, n = 6 cardiomyocytes), the peak current amplitude result is “None of the cells witnessed an increase in peak current amplitude”.
